Measurements: patent publication US10738028B2, “Spiro three-membered ring, spiro five-membered ring peptide deformylase inhibitor and use thereof in antibacteria and anti-tumor” (priority 2016, dated 2020)
Where two headings read alike, the source gives them in different places.

Assays:
Assay type in all cases: cell-based
[1] = system: HCT-116 colorectal cancer cell line; experiment: CCK-8 proliferation inhibition; conditions: Homo sapiens, 72 hours, CCK-8; for inhibition at 30 µM: HCT-116, 72 h, concentration of 30 μM
Summary of the method: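 Cells were plated overnight at 2000 cells/well, then compound in culture medium was added at a range of final concentrations. After 72 hours in a CO2 incubator, medium was replaced with 1:10 CCK-8 solution for the read-out.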

[2] = system: MGC-803 gastric cancer cell line; experiment: CCK-8 proliferation inhibition; conditions: Homo sapiens
Summary of the method: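 Proliferation was measured with 1:10 diluted CCK-8 after a 72-hour incubation with the inhibitors at various final concentrations, using 1‰ DMSO as the control. Cells were plated at 2000 per well. Culture media contained 10% newborn bovine serum: 1640 for Jurkat and MGC-803, F12 for PC3, DMEM high glucose for MCF-7.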

[3] = system: BEL-7402 liver cancer cell line; experiment: CCK-8 proliferation inhibition
Summary of the method: (§1)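 Plating at 2000 cells/well, then incubation overnight at 37° C. Next, a range of compound concentrations for 72 hours (control 1‰ DMSO). Finally, medium decanted and CCK-8 diluted 1:10 added.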

[4] = system: A549 lung cancer cell line; experiment: CCK-8 proliferation inhibition; conditions: Homo sapiens
Summary of the method: as §1

[5] = system: Enterococcus faecium (EFM); experiment: MIC, two-fold agar dilution (CLSI), clinical isolates
Summary of the method: (§2)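 MIC values come from two-fold agar dilution run per CLSI antimicrobial susceptibility testing procedure.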

[6] = system: Enterococcus faecalis (EFA); experiment: as above
Summary of the method: as §2

[7] = system: methicillin-resistant Staphylococcus aureus (MRSA); experiment: as above
Summary of the method: as §2

[8] = system: Moraxella catarrhalis (BCA); experiment: as above
Summary of the method: as §2

[9] = system: Streptococcus pneoumoniae (SPN); experiment: as above
Summary of the method: as §2

[10] = system: methicillin-resistant Staphylococcus epidermidis (MRSE); experiment: as above
Summary of the method: as §2

[11] = system: methicillin-sensitive Staphylococcus epidermidis (MSSE); experiment: as above
Summary of the method: as §2

[12] = system: methicillin-sensitive Staphylococcus aureus (MSSA); experiment: as above
Summary of the method: as §2

[13] = system: Escherichia coli (including ESBLs, non-ESBLs); experiment: as above
Summary of the method: as §2

With `CCCC[C@H](CC(=O)NO)C(=O)N1CC2(CC2)C[C@H]1C(=O)Nc1cc(C(C)(C)C)on1` [Example 55] the inhibition at 30 µM ([1]; Table 5, read-out: Inhibition of proliferation, Colorectal cancer HCT116) was ≥ 30%, the inhibition at 30 µM ([1]; read-out: HCT116 inhibition rate/%) was 30% and the IC50 ([1]; HCT-116) was 15.2 µM. For the same compound, the inhibition at 30 µM ([2]; MGC-803, 72 h, concentration of 30 μM) was 33%, the IC50 ([2]; MGC-803, 72 hours) was 29.5 µM and the inhibition at 30 µM ([3]; Homo sapiens, Bel-7402, 72 h, concentration of 30 μM) was > 50%. The IC50 ([3]; Homo sapiens, Bel-7402, 72 hours) was 25.9 µM, the “Inhibition of proliferation, Liver cancer BEL-7402” value ([3]; concentration of 30 μM, 72 hours, 30 µM) was 59% and the inhibition at 30 µM ([4]; A549, 72 h, concentration of 30 μM) was 49%. The IC50 ([4]; A549, 72 hours) was 12.1 µM, the Anti-bacterial activity (MIC), strain EFM 15-1 ([5]; clinical isolate EFM 15-1) was > 32 µg/mL and the Anti-bacterial activity (MIC), strain EFM 15-2 ([5]; clinical isolate EFM 15-2) was > 32 µg/mL. For the same compound, the Anti-bacterial activity (MIC), strain EFM 15-3 ([5]; clinical isolate EFM 15-3) was > 32 µg/mL, the Anti-bacterial activity (MIC), strain EFM 15-4 ([5]; clinical isolate EFM 15-4) was > 32 µg/mL and the Anti-bacterial activity (MIC), strain EFM 15-5 ([5]; clinical isolate EFM 15-5) was 0.5 µg/mL. The Anti-bacterial activity (MIC), strain EFM 15-6 ([5]; clinical isolate EFM 15-6) was 2 µg/mL, the Anti-bacterial activity (MIC), strain EFA 15-1 ([6]; clinical isolate EFA 15-1) was > 32 µg/mL and the Anti-bacterial activity (MIC), strain EFA 15-2 ([6]; clinical isolate EFA 15-2) was > 32 µg/mL. For the same compound, the Anti-bacterial activity (MIC), strain EFA 15-3 ([6]; clinical isolate EFA 15-3) was > 32 µg/mL, the Anti-bacterial activity (MIC), strain EFA 15-4 ([6]; clinical isolate EFA 15-4) was > 32 µg/mL and the Anti-bacterial activity (MIC), strain EFA 15-5 ([6]; clinical isolate EFA 15-5) was > 32 µg/mL. The Anti-bacterial activity (MIC), strain EFA 15-6 ([6]; clinical isolate EFA 15-6) was > 32 µg/mL, the Anti-bacterial activity (MIC), strain EFA 15-9 ([6]; clinical isolate EFA 15-9) was 8 µg/mL and the Anti-bacterial activity (MIC), strain MRSA 15-1 ([7]; clinical isolate MRSA 15-1) was 0.25 µg/mL. It also gave an Anti-bacterial activity (MIC), strain MRSA 15-2 ([7]; clinical isolate MRSA 15-2) of 0.5 µg/mL, an Anti-bacterial activity (MIC), strain MRSA 15-3 ([7]; clinical isolate MRSA 15-3) of 0.5 µg/mL and an Anti-bacterial activity (MIC), strain MRSA 15-4 ([7]; clinical isolate MRSA 15-4) of 0.5 µg/mL. It also gave an Anti-bacterial activity (MIC), strain BCA 14-1 ([8]; clinical isolate BCA 14-1) of 4 µg/mL, an Anti-bacterial activity (MIC), strain BCA 14-4 ([8]; clinical isolate BCA 14-4) of 4 µg/mL and an Anti-bacterial activity (MIC), strain BCA 14-5 ([8]; clinical isolate BCA 14-5) of 1 µg/mL. The Anti-bacterial activity (MIC), strain BCA 14-6 ([8]; clinical isolate BCA 14-6) was 2 µg/mL, the Anti-bacterial activity (MIC), strain BCA 14-7 ([8]; clinical isolate BCA 14-7) was 4 µg/mL and the Anti-bacterial activity (MIC), strain BCA 14-8 ([8]; clinical isolate BCA 14-8) was 4 µg/mL. The Anti-bacterial activity (MIC), strain BCA 14-10 ([8]; clinical isolate BCA 14-10) was 4 µg/mL, the Anti-bacterial activity (MIC), strain SPN 16-2 ([9]; clinical isolate SPN 16-2) was 1 µg/mL and the Anti-bacterial activity (MIC), strain SPN 16-4 ([9]; clinical isolate SPN 16-4) was 1 µg/mL. It also gave an Anti-bacterial activity (MIC), strain MRSE 15-1 ([10]; clinical isolate MRSE 15-1) of 1 µg/mL, an Anti-bacterial activity (MIC), strain MRSE 15-2 ([10]; clinical isolate MRSE 15-2) of 1 µg/mL and an Anti-bacterial activity (MIC), strain MRSE 15-3 ([10]; clinical isolate MRSE 15-3) of 1 µg/mL. For the same compound, the Anti-bacterial activity (MIC), strain MRSE 15-7 ([10]; clinical isolate MRSE 15-7) was 1 µg/mL, the Anti-bacterial activity (MIC), strain MSSE 15-3 ([11]; clinical isolate MSSE 15-3) was 1 µg/mL and the Anti-bacterial activity (MIC), strain MSSE 15-4 ([11]; clinical isolate MSSE 15-4) was 1 µg/mL. For the same compound, the Anti-bacterial activity (MIC), strain MSSE 15-5 ([11]; clinical isolate MSSE 15-5) was 1 µg/mL, the Anti-bacterial activity (MIC), strain MSSE 15-6 ([11]; clinical isolate MSSE 15-6) was 1 µg/mL and the Anti-bacterial activity (MIC), strain MSSA 15-3 ([12]; clinical isolate MSSA 15-3) was 0.5 µg/mL. For the same compound, the Anti-bacterial activity (MIC), strain MSSA 15-4 ([12]; clinical isolate MSSA 15-4) was 1 µg/mL, the Anti-bacterial activity (MIC), strain MSSA 15-5 ([12]; clinical isolate MSSA 15-5) was 1 µg/mL and the Anti-bacterial activity (MIC), strain MSSA 15-6 ([12]; clinical isolate MSSA 15-6) was > 32 µg/mL. The Anti-bacterial activity (MIC), strain ECO+ 15-1 ([13]; clinical isolate ECO+ 15-1) was 32 µg/mL, the Anti-bacterial activity (MIC), strain ECO+ 15-2 ([13]; clinical isolate ECO+ 15-2) was > 32 µg/mL and the Anti-bacterial activity (MIC), strain ECO+ 15-3 ([13]; clinical isolate ECO+ 15-3) was > 32 µg/mL. For the same compound, the Anti-bacterial activity (MIC), strain ECO+ 15-4 ([13]; clinical isolate ECO+ 15-4) was 1 µg/mL, the Anti-bacterial activity (MIC), strain ECO− 15-1 ([13]; clinical isolate ECO− 15-1) was > 32 µg/mL and the Anti-bacterial activity (MIC), strain ECO− 15-2 ([13]; clinical isolate ECO− 15-2) was > 32 µg/mL. The Anti-bacterial activity (MIC), strain ECO− 15-3 ([13]; clinical isolate ECO− 15-3) was > 32 µg/mL and the Anti-bacterial activity (MIC), strain ECO− 15-4 ([13]; clinical isolate ECO− 15-4) was > 32 µg/mL.
